Measurements: patent publication US20250230193A1, “CYCLIC COMPOUND HAVING SELECTIVE KRAS INHIBITORY EFFECT ON HRAS AND NRAS” (CHUGAI SEIYAKU KABUSHIKI KAISHA, priority 2022, published 2025)

Assays:
[1] = molecular target: GDP-bound HRAS wild-type protein (Homo sapiens, UniProt P01112); test: Binding to HRAS by surface plasmon resonance (SPR), Single Cycle Kinetics; settings: for HRAS/KRAS (ratio of KD value with respect to HRAS to KD value with respect to KRAS): SPR, GDP-bound HRAS wild-type vs GDP-bound KRAS wild-type; for HRAS/KRAS (ratio of KD value with respect to GDP-bound HRAS wild-type protein to KD value with respect to KRAS): class symbols
Sequence of GDP-bound HRAS wild-type protein (P01112 whole entry): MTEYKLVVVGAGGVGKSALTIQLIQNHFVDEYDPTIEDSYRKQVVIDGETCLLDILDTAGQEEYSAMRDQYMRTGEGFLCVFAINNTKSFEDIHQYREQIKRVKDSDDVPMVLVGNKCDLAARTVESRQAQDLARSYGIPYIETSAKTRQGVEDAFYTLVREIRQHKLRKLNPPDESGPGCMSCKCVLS

[2] = molecular target: GDP-bound NRAS wild-type protein (Homo sapiens, UniProt P01111); test: Binding to NRAS by surface plasmon resonance (SPR), Single Cycle Kinetics; settings: for NRAS/KRAS (ratio of KD value with respect to NRAS to KD value with respect to KRAS): SPR, GDP-bound NRAS wild-type vs GDP-bound KRAS wild-type; for NRAS/KRAS (ratio of KD value with respect to GDP-bound NRAS wild-type protein to KD value with respect to KRAS): class symbols
Sequence of GDP-bound NRAS wild-type protein (P01111 whole entry): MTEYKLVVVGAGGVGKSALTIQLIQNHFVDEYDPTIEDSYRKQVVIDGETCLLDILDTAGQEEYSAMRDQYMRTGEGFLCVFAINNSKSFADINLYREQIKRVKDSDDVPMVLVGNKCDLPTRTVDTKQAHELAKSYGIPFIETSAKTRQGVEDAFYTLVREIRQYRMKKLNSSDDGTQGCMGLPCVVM

Row | Structure (SMILES) | HRAS/KRAS (ratio of KD value with respect to HRAS to KD value with respect to KRAS) [1] | NRAS/KRAS (ratio of KD value with respect to NRAS to KD value with respect to KRAS) [2] | HRAS/KRAS (ratio of KD value with respect to GDP-bound HRAS wild-type protein to KD value with respect to KRAS) [1] | NRAS/KRAS (ratio of KD value with respect to GDP-bound NRAS wild-type protein to KD value with respect to KRAS) [2]
1 | CCC[C@H]1C(=O)N[C@@H](CC(C)C)C(=O)N(C2CC2)CC(=O)N(C)[C@H]2C/C=C\CCN(C2=O)[C@@H](Cc2ccc(C)cc2)C(=O)N(C)CC(=O)N[C@@H](CCc2ccc(C(F)(F)F)c(OC)c2)C(=O)N2C[C@H](OCC)C[C@H]2C(=O)NC2(CC(C)(C)C2)C(=O)N(C)[C@@H](C2CCCC2)C(=O)N(C)[C@H](C(=O)N(C)C)CC(=O)N1C [PP2510] | B (a compound having 3 or more and less than 10 is denoted as B) | A (a compound having 10 or more and less than 20 is denoted as A) |  | 
2 | CC[C@H](C)[C@@H]1NC(=O)[C@H](COC)N(C)C(=O)C[C@@H](C(=O)N(C)C)N(C)C(=O)[C@H](C2CCCC2)N(C)C(=O)C2(CC(C)(C)C2)NC(=O)[C@@H]2C[C@@H](OC(C)C)CN2C(=O)[C@H](CCc2cc(F)c(C(F)(F)F)c(F)c2)NC(=O)CN(C)C(=O)[C@H](CC2CCCCC2)N2CC/C=C\C[C@@H](C2=O)N(C)C(=O)CN(C2CC2)C1=O [PP2511] | A (a compound having 10 or more and less than 20 is denoted as A) | A (a compound having 10 or more and less than 20 is denoted as A) |  | 
3 | C#CCN1CC(=O)N(C)[C@H]2C/C=C\CCN(C2=O)[C@@H](Cc2ccc(C)cc2)C(=O)N(C)CC(=O)N[C@@H](CCc2cc(F)c(C(F)(F)F)c(F)c2)C(=O)N2C[C@H](OCC)C[C@H]2C(=O)NC2(CC(C)(C)C2)C(=O)N(C)[C@@H](C2CCCC2)C(=O)N(C)[C@H](C(=O)N(C)C)CC(=O)N(C)[C@@H](CCC)C(=O)N[C@@H](CC(C)C)C1=O [PP2512] | A (a compound having 10 or more and less than 20 is denoted as A) | A (a compound having 10 or more and less than 20 is denoted as A) |  | 
4 | CC[C@H](C)[C@@H]1NC(=O)[C@H](COC)N(C)C(=O)C[C@@H](C(=O)N(C)C)N(C)C(=O)[C@H](C2CCCC2)N(C)C(=O)C2(CC(C)(C)C2)NC(=O)[C@@H]2C[C@@H](OC(C)C)CN2C(=O)[C@H](CCc2ccc(Cl)c(Cl)c2)NC(=O)CN(C)C(=O)[C@H](CC2CCCCC2)N2CC/C=C\C[C@@H](C2=O)N(C)C(=O)CN(C2CC2)C1=O [PP2513] | A (a compound having 10 or more and less than 20 is denoted as A) | A (a compound having 10 or more and less than 20 is denoted as A) |  | 
5 | C#CCN1CC(=O)N(C)[C@H]2C/C=C\CCN(C2=O)[C@@H](Cc2ccc(C)cc2)C(=O)N(C)CC(=O)N[C@@H](CCc2ccc(C(F)(F)F)c(OC)c2)C(=O)N2C[C@H](OCC)C[C@H]2C(=O)NC2(CC(C)(C)C2)C(=O)N(C)[C@@H](C2CCCC2)C(=O)N(C)[C@H](C(=O)N(C)C)CC(=O)N(C)[C@@H](CCC)C(=O)N[C@@H](CC(C)C)C1=O [PP2514] | B (a compound having 3 or more and less than 10 is denoted as B) | A (a compound having 10 or more and less than 20 is denoted as A) |  | 
6 | CCC(CC)[C@H]1C(=O)N(C)[C@H](C(=O)N(C)C)CC(=O)N(C)[C@@H](COC)C(=O)N[C@@H]([C@@H](C)CC)C(=O)N(C2CC2)CC(=O)N(C)[C@H]2C/C=C\CCN(C2=O)[C@@H](CC2CCCCC2)C(=O)N(C)CC(=O)N[C@@H](CCc2cc(F)c(C(F)(F)F)c(F)c2)C(=O)N2C[C@H](OC(C)C)C[C@H]2C(=O)NC2(CC(C)(C)C2)C(=O)N1C [PP2515] | A (a compound having 10 or more and less than 20 is denoted as A) | A (a compound having 10 or more and less than 20 is denoted as A) |  | 
7 | CCC[C@H]1C(=O)N[C@@H](CC(C)C)C(=O)N(CC)CC(=O)N(C)[C@H]2C/C=C\CCN(C2=O)[C@@H](Cc2ccc(C)cc2)C(=O)N(C)CC(=O)N[C@@H](CCc2cc(F)c(C(F)(F)F)c(F)c2)C(=O)N2C[C@H](OCC)C[C@H]2C(=O)NC2(CC(C)(C)C2)C(=O)N(C)[C@@H](C2CCCC2)C(=O)N(C)[C@H](C(=O)N(C)C)CC(=O)N1C [PP2516] | B (a compound having 3 or more and less than 10 is denoted as B) | A (a compound having 10 or more and less than 20 is denoted as A) |  | 
8 | CCC[C@H]1C(=O)N[C@@H](CC(C)C)C(=O)N(CC)CC(=O)N(C)[C@H]2C/C=C\CCN(C2=O)[C@@H](Cc2ccc(C)cc2)C(=O)N(C)CC(=O)N[C@@H](CCc2ccc(C(F)(F)F)c(OC)c2)C(=O)N2C[C@H](OCC)C[C@H]2C(=O)NC2(CC(C)(C)C2)C(=O)N(C)[C@@H](C2CCCC2)C(=O)N(C)[C@H](C(=O)N(C)C)CC(=O)N1C [PP2518] | A (a compound having 10 or more and less than 20 is denoted as A) | A (a compound having 10 or more and less than 20 is denoted as A) |  | 
9 | CCC[C@H]1C(=O)N[C@@H](CC(C)C)C(=O)N(CCOC)CC(=O)N(C)[C@H]2C/C=C\CCN(C2=O)[C@@H](Cc2ccc(C)cc2)C(=O)N(C)CC(=O)N[C@@H](CCc2cc(F)c(C(F)(F)F)c(F)c2)C(=O)N2C[C@H](OCC)C[C@H]2C(=O)NC2(CC(C)(C)C2)C(=O)N(C)[C@@H](C2CCCC2)C(=O)N(C)[C@H](C(=O)N(C)C)CC(=O)N1C [PP2520] | A (a compound having 10 or more and less than 20 is denoted as A) | A (a compound having 10 or more and less than 20 is denoted as A) |  | 
10 | CCC[C@H]1C(=O)N[C@@H]([C@@H](C)CC)C(=O)N(C2CC2)CC(=O)N(C)[C@H]2C/C=C\CCN(C2=O)[C@@H](CC2CCC(F)(F)CC2)C(=O)N(C)CC(=O)N[C@@H](CCc2ccc(Cl)c(Cl)c2)C(=O)N2C[C@H](OC(C)C)C[C@H]2C(=O)NC2(CC(C)(C)C2)C(=O)N(C)[C@@H](C2CCCC2)C(=O)N(C)[C@H](C(=O)N(C)C)CC(=O)N1C [PP2521] | A (a compound having 10 or more and less than 20 is denoted as A) | A (a compound having 10 or more and less than 20 is denoted as A) |  | 
11 | CCC[C@H]1C(=O)N[C@@H](CC(C)C)C(=O)N(CCOC)CC(=O)N(C)[C@H]2C/C=C\CCN(C2=O)[C@@H](Cc2ccc(C)cc2)C(=O)N(C)CC(=O)N[C@@H](CCc2ccc(C(F)(F)F)c(OC)c2)C(=O)N2C[C@H](OCC)C[C@H]2C(=O)NC2(CC(C)(C)C2)C(=O)N(C)[C@@H](C2CCCC2)C(=O)N(C)[C@H](C(=O)N(C)C)CC(=O)N1C [PP2522] |  |  | B (a compound having 3 or more and less than 10 is denoted as B) | B (a compound having 3 or more and less than 10 is denoted as B)
12 | CCC(CC)[C@H]1C(=O)N(C)[C@H](C(=O)N(C)C)CC(=O)N(C)[C@@H](COC)C(=O)N[C@@H]([C@@H](C)CC)C(=O)N(C2CC2)CC(=O)N(C)[C@H]2C/C=C\CCN(C2=O)[C@@H](CC2CCC(F)(F)CC2)C(=O)N(C)CC(=O)N[C@@H](CCc2cc(F)c(C(F)(F)F)c(F)c2)C(=O)N2C[C@H](OC(C)C)C[C@H]2C(=O)NC2(CC(C)(C)C2)C(=O)N1C [PP2523] |  |  | A (a compound having 10 or more and less than 20 is denoted as A) | A (a compound having 10 or more and less than 20 is denoted as A)
13 | CCC(CC)[C@H]1C(=O)N(C)[C@H](C(=O)N(C)C)CC(=O)N(C)[C@@H](COC)C(=O)N[C@@H]([C@@H](C)CC)C(=O)N(C2CC2)CC(=O)N(C)[C@H]2C/C=C\CCN(C2=O)[C@@H](CC2CCC(F)(F)CC2)C(=O)N(C)CC(=O)N[C@@H](CCc2ccc(Cl)c(Cl)c2)C(=O)N2C[C@H](OC(C)C)C[C@H]2C(=O)NC2(CC(C)(C)C2)C(=O)N1C [PP2525] |  |  | A (a compound having 10 or more and less than 20 is denoted as A) | AA (a compound having 20 or more is denoted as AA)
14 | C#CCN1CC(=O)N(C)[C@H]2C/C=C\CCN(C2=O)[C@@H](Cc2ccc(C)cc2)C(=O)N(C)CC(=O)N[C@@H](CCc2ccc(C(F)(F)F)c(Cl)c2)C(=O)N2C[C@H](OCC)C[C@H]2C(=O)NC2(CC(C)(C)C2)C(=O)N(C)[C@@H](C2CCCC2)C(=O)N(C)[C@H](C(=O)N(C)C)CC(=O)N(C)[C@@H](CCC)C(=O)N[C@@H](CC(C)C)C1=O [PP2526] |  |  | B (a compound having 3 or more and less than 10 is denoted as B) | A (a compound having 10 or more and less than 20 is denoted as A)
15 | CCC[C@H]1C(=O)N[C@@H]([C@@H](C)CC)C(=O)N(C2CC2)CC(=O)N(C)[C@H]2C/C=C\CCN(C2=O)[C@@H](Cc2ccc(C(F)F)cc2)C(=O)N(C)CC(=O)N[C@@H](CCc2cc(F)c(C(F)(F)F)c(F)c2)C(=O)N2C[C@H](OCC)C[C@H]2C(=O)NC2(CC(C)(C)C2)C(=O)N(C)[C@@H](C(CC)CC)C(=O)N(C)[C@H](C(=O)N(C)C)CC(=O)N1C [PP2527] |  |  | A (a compound having 10 or more and less than 20 is denoted as A) | AA (a compound having 20 or more is denoted as AA)
16 | CCC[C@H]1C(=O)N[C@@H](CC(C)C)C(=O)N(CC)CC(=O)N(C)[C@H]2C/C=C\CCN(C2=O)[C@@H](Cc2ccc(C)cc2)C(=O)N(C)CC(=O)N[C@@H](CCc2ccc(C(F)(F)F)c(Cl)c2)C(=O)N2C[C@H](OCC)C[C@H]2C(=O)NC2(CC(C)(C)C2)C(=O)N(C)[C@@H](C2CCCC2)C(=O)N(C)[C@H](C(=O)N(C)C)CC(=O)N1C [PP2528] |  |  | B (a compound having 3 or more and less than 10 is denoted as B) | A (a compound having 10 or more and less than 20 is denoted as A)
